Results on 26 compounds are retold here after US10975056B2 (GlaxoSmithKline Intellectual Property Development Limited, priority 2016, dated 2021).

“And” between values parts separate entries of the source, which are not always exact repeats. Equal entries are not always repeated. Structures can show the parent of a compound that is named as a salt. Where two headings read alike, the source gives them in different places. Where only a bound is given, the exact number is not on record here.

The target in one assay is DNMT1 (Homo sapiens, UniProt P26358). Kind of assay: DNMT1 biochemical activity, breaklight assay and/or SPA assay.
DNMT1, sequence (P26358 whole entry, looked up): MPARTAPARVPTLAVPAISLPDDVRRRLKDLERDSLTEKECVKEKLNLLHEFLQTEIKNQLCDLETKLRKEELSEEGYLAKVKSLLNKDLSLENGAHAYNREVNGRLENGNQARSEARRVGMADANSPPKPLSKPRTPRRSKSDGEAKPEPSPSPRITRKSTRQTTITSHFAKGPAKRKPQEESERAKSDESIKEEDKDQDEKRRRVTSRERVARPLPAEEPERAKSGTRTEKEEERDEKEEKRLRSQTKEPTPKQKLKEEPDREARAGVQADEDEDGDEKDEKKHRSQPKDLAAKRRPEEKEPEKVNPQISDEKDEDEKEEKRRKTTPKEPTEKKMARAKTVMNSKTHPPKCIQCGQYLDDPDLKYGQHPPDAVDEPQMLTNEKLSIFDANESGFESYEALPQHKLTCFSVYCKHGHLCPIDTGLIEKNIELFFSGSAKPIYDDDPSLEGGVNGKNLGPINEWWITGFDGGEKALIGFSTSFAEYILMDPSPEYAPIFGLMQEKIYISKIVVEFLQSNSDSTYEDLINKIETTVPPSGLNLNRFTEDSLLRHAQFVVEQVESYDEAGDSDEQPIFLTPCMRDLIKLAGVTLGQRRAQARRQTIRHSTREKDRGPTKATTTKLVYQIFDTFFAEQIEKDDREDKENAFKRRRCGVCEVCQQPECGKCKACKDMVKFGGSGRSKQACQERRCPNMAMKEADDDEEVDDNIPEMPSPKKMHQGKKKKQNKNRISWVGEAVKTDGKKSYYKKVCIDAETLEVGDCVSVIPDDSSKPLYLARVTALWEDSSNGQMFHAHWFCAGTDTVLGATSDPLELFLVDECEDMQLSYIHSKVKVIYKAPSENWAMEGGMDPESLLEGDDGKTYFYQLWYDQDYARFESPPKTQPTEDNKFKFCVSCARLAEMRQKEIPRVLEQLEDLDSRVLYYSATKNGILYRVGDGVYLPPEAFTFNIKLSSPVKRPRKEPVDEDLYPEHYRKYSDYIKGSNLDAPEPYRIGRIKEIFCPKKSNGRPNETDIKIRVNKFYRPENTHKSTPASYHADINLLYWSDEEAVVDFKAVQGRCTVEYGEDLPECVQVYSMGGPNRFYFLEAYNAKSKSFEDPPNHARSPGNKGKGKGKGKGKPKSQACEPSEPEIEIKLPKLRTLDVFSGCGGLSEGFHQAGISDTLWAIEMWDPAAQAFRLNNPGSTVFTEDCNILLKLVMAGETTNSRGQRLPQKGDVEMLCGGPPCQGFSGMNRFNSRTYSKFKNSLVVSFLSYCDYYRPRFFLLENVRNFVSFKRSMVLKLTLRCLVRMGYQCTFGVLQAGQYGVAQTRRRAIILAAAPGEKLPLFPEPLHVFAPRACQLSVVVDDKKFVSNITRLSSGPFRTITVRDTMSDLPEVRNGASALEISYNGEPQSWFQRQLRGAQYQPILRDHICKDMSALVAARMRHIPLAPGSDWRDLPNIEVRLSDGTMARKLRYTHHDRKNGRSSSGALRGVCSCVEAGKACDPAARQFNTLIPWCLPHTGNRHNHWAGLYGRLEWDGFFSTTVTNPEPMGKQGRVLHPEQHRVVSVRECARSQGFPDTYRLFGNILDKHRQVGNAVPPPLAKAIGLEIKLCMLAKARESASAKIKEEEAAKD
For assay [1], the system named is erythroid progenitor cells (EPCs). Kind of assay: Fetal hemoglobin (HbF) ELISA in day 7 erythroid progenitor cells.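 Further: for fetal hemoglobin induction normalized to vehicle-treated cells.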 Format: cell-based, human. Conditions: Homo sapiens, Erythroid progenitor cell, HbF ELISA, day 7 EPCs, 5 days; read-out: EPC ELISA (pEC50 category) (converted). In outline: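 CD34+-derived EPCs, 1,000 cells/well, rhEPO 3 U/mL; Compound A 22-pt series, […]; 5 d, 37° C, 5% CO2. Freeze-thaw lysis, anti-HbF capture + HRP anti-HbF, TMB, OD450. Normalized to DMSO wells.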

[2] abbreviates: binned activity in either the breaklight or the SPA assay.
Setting [3] is: binned activity in either the breaklight or the SPA assay, read-out: DNMT1 BioChemical (pIC50 category) (converted).
The mark [4] stands for this setting: breaklight assay and/or SPA assay, repeated experimental runs, read-out: average pIC50 against DNMT1 (converted).

For `C[C@@H](N)C(=O)NC1CCN(c2nc(SC(C(N)=O)c3ccccc3)c(C#N)c(C3CC3)c2C#N)CC1` (stereo partly drawn) [Example 372, (2R)-2-Amino-N-(1-(6-((2-amino-2-oxo-1-phenylethyl)thio)-3,5-dicyano-4-cyclopropylpyridin-2-yl)piperidin-4-yl)propanamide], the “DNMT1 BioChemical (pIC50 category)” value at DNMT1 (setting [2]) is on record as “D (Category D: ≥6.5)”. Besides, the EC50 in assay [1] is 0.316 to 1 µM.

For the compound `CCc1c(C#N)c(SC(C(N)=O)c2ccccc2)nc(N2CCC(O)(CN)CC2)c1C#N` (stereo not shown) [Example 243, 2-((6-(4-(Aminomethyl)-4-hydroxypiperidin-1-yl)-3,5-dicyano-4-ethylpyridin-2-yl)thio)-2-phenylacetamide, Trifluoroacetic Acid Salt], on DNMT1 (setting [2]), the “DNMT1 BioChemical (pIC50 category)” value is recorded as “D (Category D: ≥6.5)”. Further, the EC50 in assay [1] is 0.316 to 1 µM.

Take `CCc1c(C#N)c(S[C@@H](C(N)=O)c2ccccc2)nc(N2CC[C@@H](NC(=O)OC(C)(C)C)[C@H](O)C2)c1C#N` [Example 542, tert-butyl((3R,4R)-1-(6-(((R)-2-amino-2-oxo-1-phenylethyl)thio)-3,5-dicyano-4-ethylpyridin-2-yl)-3-hydroxypiperidin-4-yl)carbamate*]: on DNMT1 (setting [2]), the “DNMT1 BioChemical (pIC50 category)” value is “D (Category D: ≥6.5)”. Besides, the EC50 in assay [1] was 0.316 to 1 µM.

Turning to `CCc1c(C#N)c(SC(C(N)=O)c2ccccc2)nc(N2CC(OC(=O)C(N)C(C)C)C2)c1C#N` (stereo in doubt) [Example 333, (2R)-1-(6-((2-Amino-2-oxo-1-phenylethyl)thio)-3,5-dicyano-4-ethylpyridin-2-yl)azetidin-3-yl 2-amino-3-methylbutanoate], the “DNMT1 BioChemical (pIC50 category)” value on DNMT1 (setting [2]) is “D (Category D: ≥6.5)”. For the same compound, the EC50 in assay [1] was 1 to 31.6 µM.

As to `CCc1c(C#N)c(SC(C(N)=O)c2ncccc2F)nc(N2CCCN(C)CC2)c1C#N` (stereo not shown) [Example 220, 2-((3,5-Dicyano-4-ethyl-6-(4-methyl-1,4-diazepan-1-yl)pyridin-2-yl)thio)-2-(3-fluoropyridin-2-yl) acetamide], the IC50 at DNMT1 (setting [3]) is 0.316 to 1 µM. For the same compound, the EC50 in assay [1] is < 0.316 µM.

Turning to `CCc1c(C#N)c(SCc2ccc(CC(=O)O)cc2)nc(N2CCCN(C)CC2)c1C#N` [Example 72, 2-(4-(((3,5-Dicyano-4-ethyl-6-(4-methyl-1,4-diazepan-1-yl)pyridin-2-yl)thio)methyl)phenyl)acetic acid], the IC50 at DNMT1 (setting [3]) was 1 to 31.6 µM; at DNMT1 (setting [4]), ≥ 1 µM and 2 µM. Further, the EC50 in assay [1] is > 31.6 µM.

For `CCc1c(C#N)c(SC(C(N)=O)c2ccccc2)nc(N2CCN(S(=O)(=O)c3ccccc3)CC2)c1C#N` (stereo not shown) [Example 159, 2-((3,5-Dicyano-4-ethyl-6-(4-(phenylsulfonyl)piperazin-1-yl)pyridin-2-yl)thio)-2-phenylacetamide], the IC50 on DNMT1 (setting [3]) is 1 to 31.6 µM. Also, the EC50 in assay [1] is 0.316 to 1 µM.

Turning to `CCc1c(C#N)c(SC(C(N)=O)c2ccccc2)nc(N(C)CCOP(=O)(O)O)c1C#N` (stereo not shown) [Example 151, 2-((6-((2-Amino-2-oxo-1-phenylethyl)thio)-3,5-dicyano-4-ethylpyridin-2-yl)(methyl)amino)ethyl dihydrocien phosphate], on DNMT1 (setting [3]), the IC50 was 1 to 31.6 µM. In assay [1], the EC50 was > 31.6 µM.

In the case of `CCc1c(C#N)c(S[C@@H](C(N)=O)c2ccccc2)nc(N2CCOCC2)c1C#N` [Example 65, (R)-2-[(3,5-Dicyano-4-ethyl-6-morpholino-2-pyridyl)sulfanyl]-2-phenyl-acetamide], the IC50 at DNMT1 (setting [3]) is 0.316 to 1 µM. The EC50 in assay [1] was 1 to 31.6 µM.

For the compound `CN(CC(=O)NC(CO)CO)c1nc(SC(C(N)=O)c2ccccc2)c(C#N)c(C2CC2)c1C#N` (stereo not shown) [Example 639, 2-((6-((2-amino-2-oxo-1-phenylethyl)thio)-3,5-dicyano-4-cyclopropylpyridin-2-yl)(methyl)amino)-N-(1,3-dihydroxypropan-2-yl)acetamide], the “DNMT1 BioChemical (pIC50 category)” value on DNMT1 (setting [2]) was “D (Category D: ≥6.5)”. Also, the EC50 in assay [1] was 1 to 31.6 µM.

With `CCc1c(C#N)c(SC(C(N)=O)c2ccccc2)nc(N2CCC3(CCCNC3)CC2)c1C#N` (stereo not shown) [Example 116, 2-((3,5-Dicyano-4-ethyl-6-(2,9-diazaspiro[5.5]undecan-9-yl)pyridin-2-yl)thio)-2-phenylacetamide], the “DNMT1 BioChemical (pIC50 category)” value on DNMT1 (setting [2]) is given as “D (Category D: ≥6.5)”. Besides, the EC50 in assay [1] was < 0.316 µM.

With `CCc1c(C#N)c(SC(C(N)=O)c2ccccc2)nc(N(C)CC(=O)NOC)c1C#N` (stereo not shown) [Example 663, 2-((6-((2-amino-2-oxo-1-phenylethyl)thio)-3,5-dicyano-4-ethylpyridin-2-yl)(methyl)amino)-N-methoxyacetamide], the “DNMT1 BioChemical (pIC50 category)” value on DNMT1 (setting [2]) was “D (Category D: ≥6.5)”. Also, the EC50 in assay [1] is < 0.316 µM.

`CCc1c(C#N)c(SC(C(N)=O)c2ccc(C(N)=O)cc2)nc(N(C)C)c1C#N` (stereo not shown) [Example 375, 4-(2-Amino-1-((3,5-dicyano-6-(dimethylamino)-4-ethylpyridin-2-yl)thio)-2-oxoethyl)benzamide]: the “DNMT1 BioChemical (pIC50 category)” value on DNMT1 (setting [2]) is “D (Category D: ≥6.5)”. Further, the EC50 in assay [1] was 1 to 31.6 µM.

Turning to `CCc1c(C#N)c(N[C@@H](C(N)=O)c2ccccc2)nc(N2CCCN(CCCN3CCCC3)CC2)c1C#N` [Example 163, (R)-2-((3,5-Dicyano-4-ethyl-6-(4-(3-(pyrrolidin-1-yl)propyl)-1,4-diazepan-1-yl)pyridin-2-yl)amino)-2-phenylacetamide], the IC50 at DNMT1 (setting [3]) is 1 to 31.6 µM. Besides, the EC50 in assay [1] was > 31.6 µM.

On to `CCc1c(C#N)c(S[C@@H](C(N)=O)c2ccccc2)nc(N2CC[C@@H](N)[C@H](O)C2)c1C#N` [Example 523, (R)-2-((6-((3R,4R)-4-amino-3-hydroxypiperidin-1-yl)-3,5-dicyano-4-ethylpyridin-2-yl)thio)-2-phenylacetamide 2,2,2-trifluoroacetate*], for which the “DNMT1 BioChemical (pIC50 category)” value at DNMT1 (setting [2]) is “D (Category D: ≥6.5)”. The “average pIC50 against DNMT1” value on DNMT1 (breaklight assay and/or SPA assay, repeated experimental runs) is > 6.5. In addition, the IC50 at DNMT1 (setting [4]) was 0.0794 µM. Moreover, in assay [1], the EC50 is < 0.316 µM.

For `CCc1c(C#N)c(SC(C(N)=O)c2ccccc2)nc(N2CCN(Cc3cnoc3)CC2)c1C#N` (stereo not shown) [Example 185], the IC50 at DNMT1 (setting [3]) was 0.316 to 1 µM. Further, the EC50 in assay [1] was 0.316 to 1 µM.

Turning to `CCc1c(C#N)c(SC(C(N)=O)c2ccccc2)nc(N(C)CCN2[C@H](C)CC[C@@H]2C)c1C#N` (stereo partly drawn) [Example 476, 2-(3,5-dicyano-6-((2-((2S,5R)-2,5-dimethylpyrrolidin-1-yl)ethyl)(methyl)amino)-4-ethylpyridin-2-ylthio)-2-phenylacetamide], the “DNMT1 BioChemical (pIC50 category)” value at DNMT1 (setting [2]) is given as “D (Category D: ≥6.5)”. Further, the EC50 in assay [1] was < 0.316 µM.

For the compound `CCc1c(C#N)c(SCc2ccc(CS(C)(=O)=O)cc2)nc(N2CCC(N)CC2)c1C#N` [Example 499, 2-(4-aminopiperidin-1-yl)-4-ethyl-6-((4-((methylsulfonyl)methyl)benzyl)thio)pyridine-3,5-dicarbonitrile], the “DNMT1 BioChemical (pIC50 category)” value at DNMT1 (setting [2]) is recorded as “D (Category D: ≥6.5)”. Besides, the EC50 in assay [1] was < 0.316 µM.

For the compound `CC(C)(N)C(=O)NC1CCN(c2nc(SC(C(N)=O)c3ccccc3)c(C#N)c(C3CC3)c2C#N)CC1` (stereo not shown) [Example 374, 2-Amino-N-(1-(6-((2-amino-2-oxo-1-phenylethyl)thio)-3,5-dicyano-4-cyclopropylpyridin-2-yl)piperidin-4-yl)-2-methylpropanamide], at DNMT1 (setting [2]), the “DNMT1 BioChemical (pIC50 category)” value was “D (Category D: ≥6.5)”. For the same compound, the EC50 in assay [1] was 0.316 to 1 µM.

For `CCc1c(C#N)c(SC(C(N)=O)c2ccccc2)nc(N(C)CCN2CC[C@H](O)C2)c1C#N` (stereo partly drawn) [Example 486, 2-(3,5-dicyano-4-ethyl-6-((2-((S)-3-hydroxypyrrolidin-1-yl)ethyl)(methyl)amino)pyridin-2-ylthio)-2-phenylacetamide], on DNMT1 (setting [2]), the “DNMT1 BioChemical (pIC50 category)” value is on record as “D (Category D: ≥6.5)”. Besides, in assay [1], the EC50 was < 0.316 µM.

Consider `CCc1c(C#N)c(SC(C(N)=O)c2ccccc2)nc(N2CCC(F)(CN)CC2)c1C#N` (stereo not shown) [Example 618, 2-((6-(4-(aminomethyl)-4-fluoropiperidin-1-yl)-3,5-dicyano-4-ethylpyridin-2-yl)thio)-2-phenylacetamide hydrochloride], for which the “DNMT1 BioChemical (pIC50 category)” value at DNMT1 (setting [2]) is on record as “D (Category D: ≥6.5)”. In assay [1], the EC50 was < 0.316 µM.

Take `CCc1c(C#N)c(SC(C(N)=O)c2ccccc2)nc(N2CCC(NC(=O)C3(N)CCOCC3)CC2)c1C#N` (stereo not shown) [Example 140, 4-Amino-N-(1-(6-((2-amino-2-oxo-1-phenylethyl)thio)-3,5-dicyano-4-ethylpyridin-2-yl)piperidin-4-yl)tetrahydro-2H-pyran-4-carboxamide, Trifluoroacetic Acid Salt]: the “DNMT1 BioChemical (pIC50 category)” value at DNMT1 (setting [2]) is given as “D (Category D: ≥6.5)”. The EC50 in assay [1] was < 0.316 µM.

Regarding `CCc1c(C#N)c(SCc2ccc(N(C)C(C)=O)cc2)nc(N2CCCN(C)CC2)c1C#N` [Example 354, N-(4-(((3,5-Dicyano-4-ethyl-6-(4-methyl-1,4-diazepan-1-yl)pyridin-2-yl)thio)methyl)phenyl)-N-methylacetamide], the IC50 at DNMT1 (setting [3]) was 0.316 to 1 µM. The EC50 in assay [1] is 1 to 31.6 µM.

With `CCc1c(C#N)c(SC(C(N)=O)c2cc(F)ncc2F)nc(N2CCCN(C)CC2)c1C#N` (stereo not shown) [Example 249, 2-((3,5-Dicyano-4-ethyl-6-(4-methyl-1,4-diazepan-1-yl)pyridin-2-yl)thio)-2-(2,5-difluoropyridin-4-yl)acetamide], on DNMT1 (setting [3]), the IC50 was 1 to 31.6 µM. In addition, in assay [1], the EC50 is > 31.6 µM.

Take `CCc1c(C#N)c(SCc2ccc(CNC(C)=O)cc2)nc(N2CCNC(=O)C2)c1C#N` [Example 329]: the IC50 at DNMT1 (setting [3]) was 0.316 to 1 µM. Moreover, the EC50 in assay [1] was 1 to 31.6 µM.

On to `CCc1c(C#N)c(SC(C(N)=O)c2ccc(F)cc2)nc(N(C)C)c1C#N` (stereo not shown) [Example 198, 2-((3,5-Dicyano-6-(dimethylamino)-4-ethylpyridin-2-yl)thio)-2-(4-fluorophenyl)acetamide], for which, on DNMT1 (setting [2]), the “DNMT1 BioChemical (pIC50 category)” value is “D (Category D: ≥6.5)”. In assay [1], the EC50 was 0.316 to 1 µM.
